Experimental data reported in patent publication US9328099B2, “Cyanomethylpyrazole carboxamides as janus kinase inhibitors” (Merck Sharp & Dohme Corp., priority 2011, dated 2016).
Where two headings read alike, the source gives them in different places.

Tests used:
JAK2 = JAK2 (Homo sapiens (Human), UniProt O60674); assay: Jak Biochemical HTRF Assay, JAK2
Text: (§1) Jak Biochemical HTRF Assay Protocol
(§2) Subsequent reagent additions employed an Agilent Bravo.

JAK1 = JAK1 (Homo sapiens (Human), UniProt P23458); assay: Jak Biochemical HTRF Assay, JAK1; conditions: read-out: JAK1 IC50
Sequence of JAK1 (P23458 875-1153): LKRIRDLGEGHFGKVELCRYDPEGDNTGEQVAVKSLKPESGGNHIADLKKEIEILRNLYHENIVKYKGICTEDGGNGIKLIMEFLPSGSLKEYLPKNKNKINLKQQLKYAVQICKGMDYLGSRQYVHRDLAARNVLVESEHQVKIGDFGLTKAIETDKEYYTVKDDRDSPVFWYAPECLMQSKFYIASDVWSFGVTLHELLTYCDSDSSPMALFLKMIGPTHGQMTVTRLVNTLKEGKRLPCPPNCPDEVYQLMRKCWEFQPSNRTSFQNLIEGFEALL
Text: as §1, §2

[1] = HTRF biochemical assay, GST-tagged catalytic domain, top concentration tested […]

Sequence of JAK2 (O60674 849-1124): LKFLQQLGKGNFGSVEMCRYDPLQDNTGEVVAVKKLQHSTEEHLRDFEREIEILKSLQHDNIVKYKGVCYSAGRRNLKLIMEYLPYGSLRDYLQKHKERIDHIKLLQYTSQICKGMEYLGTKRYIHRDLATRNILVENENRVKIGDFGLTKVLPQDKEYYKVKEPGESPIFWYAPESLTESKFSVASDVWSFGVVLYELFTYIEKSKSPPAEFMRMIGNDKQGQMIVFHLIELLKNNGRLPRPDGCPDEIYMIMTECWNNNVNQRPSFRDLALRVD

IC50 (JAK2; [1]) [nM] | IC50 (JAK1; [1]) [nM] | Compound | IC50 (JAK1) [nM] | IC50 (JAK2) [nM]
8 | 0.3 | N#CCC1(n2cc(C(N)=O)c(Nc3ccccc3)n2)CCN(C(=O)c2cccs2)CC1 [Example 34-14, 1-[4-(cyanomethyl)-1-(thiophen-2-ylcarbonyl)piperidin-4-yl]-3-(phenylamino)-1H-pyrazole-4-carboxamide] | – | –
237 | 19 | CS(=O)(=O)c1ccc(Nc2nn(C3(CC#N)CN(C(=O)Nc4cc(F)ccc4F)C3)cc2C(N)=O)cc1 [Example 38-42, 1-{3-(cyanomethyl)-1-[(2,5-difluorophenyl)carbamoyl]azetidin-3-yl}-3-{[4-(methylsulfonyl)phenyl]amino}-1H-pyrazole-4-carboxamide] | – | –
5 | 2 | CC(C)(C)OC(=O)N1CC(CC#N)(n2cc(C(N)=O)c(Nc3ccc(C(=O)N4CCS(=O)(=O)CC4)cc3)n2)C1 [Example 2-8, tert-butyl 3-[4-carbamoyl-3-({4-[(1,1-dioxidothiomorpholin-4-yl)carbonyl]phenyl}amino)-1H-pyrazol-1-yl]-3-(cyanomethyl)azetidine-1-carboxylate] | – | –
2 | 0.1 | CNC(=O)c1ccc(Nc2nn(C3(CC#N)CCN(C(=O)OC(C)(C)C)CC3)cc2C(N)=O)cc1 [Example 9-4, tert-Butyl 4-[4-(aminocarbonyl)-3-({4-[(methylamino)carbonyl]phenyl}amino)-1H-pyrazol-1-yl]-4-(cyanomethyl)piperidine-1-carboxylate] | – | –
903 | 15 | CC(C)(C)OC(=O)N1CCC(CC#N)(n2cc(C(N)=O)c(Nc3cc(F)ccn3)n2)CC1 [Example 13-5, tert-butyl 4-(4-carbamoyl-3-(4-fluoropyridin-2-ylamino)-1H-pyrazol-1-yl)-4-(cyanomethyl)piperidine-1-carboxylate] | – | –
249 | 6 | CC(C)(C)COC(=O)N1CCC(CC#N)(n2cc(C(N)=O)c(Nc3ccccc3)n2)CC1 [Example 30-29, 2,2-dimethylpropyl 4-[4-carbamoyl-3-(phenylamino)-1H-pyrazol-1-yl]-4-(cyanomethyl)piperidine-1-carboxylate] | – | –
2 | 0.08 | N#CCC1(n2cc(C(N)=O)c(Nc3ccc(F)cc3)n2)CCN(c2ccccn2)CC1 [Example 25, 1-(4-(Cyanomethyl)-1-(pyridin-2-yl)piperidin-4-yl)-3-(4-fluorophenylamino)-1H-pyrazole-4-carboxamide] | – | –
233 | 15 | COc1ccc(NC(=O)N2CC(CC#N)(n3cc(C(N)=O)c(Nc4ccccc4)n3)C2)c(C)c1 [Example 38-36, 1-{3-(cyanomethyl)-1-[(4-methoxy-2-methylphenyl)carbamoyl]azetidin-3-yl}-3-(phenylamino)-1H-pyrazole-4-carboxamide] | – | –
314 | 46 | N#CCCCN1CCC(CC#N)(n2cc(C(N)=O)c(Nc3ccccc3)n2)CC1 [Example 21-5, 1-[4-(cyanomethyl)-1-(3-cyanopropyl)piperidin-4-yl]-3-(phenylamino)-1H-pyrazole-4-carboxamide] | – | –
> 1500 | 584 | N#CCC1(n2cc(C(N)=O)c(Nc3ccc(F)cc3)n2)CCC(N2CCC(O)CC2)CC1 (stereo not drawn) [Example 40-41, Cis or trans 1-[1-(cyanomethyl)-4-(4-hydroxypiperidin-1-yl)cyclohexyl]-3-[(4-fluorophenyl)amino]-1H-pyrazole-4-carboxamide] | – | –
4 | 0.3 | N#CCC1(n2cc(C(N)=O)c(Nc3ccc(F)cc3)n2)CCN(c2cccc(F)n2)CC1 [Example 3-54, 1-[4-(cyanomethyl)-1-(6-fluoropyridin-2-yl)piperidin-4-yl]-3-[(4-fluorophenyl)amino]-1H-pyrazole-4-carboxamide] | – | –
> 1500 | 86 | N#CC[C@]1(n2cc(C(N)=O)c(Nc3ccc(S(=O)(=O)C(F)F)cc3)n2)CC[C@H](N)CC1 [Example 41-2] | – | –
16 | 1 | COC(=O)N1CCC(CC#N)(n2cc(C(N)=O)c(Nc3ccc(S(C)(=O)=O)cc3)n2)CC1 [Example 27-3, methyl 4-(4-carbamoyl-3-{[4-(methylsulfonyl)phenyl]amino}-1H-pyrazol-1-yl)-4-(cyanomethyl)piperidine-1-carboxylate] | – | –
81 | 2 | N#CCC1(n2cc(C(N)=O)c(Nc3ccnc(F)c3)n2)CCN(Cc2cccc3ccnn23)CC1 [Example 22-33, 1-[4-(cyanomethyl)-1-(pyrazolo[1,5-a]pyridin-7-ylmethyl)piperidin-4-yl]-3-[(2-fluoropyridin-4-yl)amino]-1H-pyrazole-4-carboxamide] | – | –
25 | 1 | CC(C)(C)OC(=O)N1CC[C@](CC#N)(n2cc(C(N)=O)c(Nc3ccc(F)cc3)n2)[C@@H](F)C1 (racemic) [Example 6-3, tert-butyl (3S,4R and 3R,4S)-4-{4-carbamoyl-3-[(4-fluorophenyl)amino]-1H-pyrazol-1-yl}-4-(cyanomethyl)-3-fluoropiperidine-1-carboxylate] | – | –
9 | 0.5 | N#CCC1(n2cc(C(N)=O)c(Nc3ccc(F)cc3)n2)CCN(C(=O)OCC(F)F)CC1 [Example 30-7, 2,2-difluoroethyl 4-(4-carbamoyl-3-(4-fluorophenylamino)-1H-pyrazol-1-yl)-4-(cyanomethyl)piperidine-1-carboxylate] | – | –
> 1500 | 119 | N#CCC1(n2cc(C(N)=O)c(Nc3ccc(F)cc3)n2)CCC(Nc2cccc(F)c2)CC1 (stereo not drawn) [Example 40-3, Cis or trans 1-{1-(cyanomethyl)-4-[(3-fluorophenyl)amino]cyclohexyl}-3-[(4-fluorophenyl)amino]-1H-pyrazole-4-carboxamide] | – | –
> 1500 | 200 | N#CCC1(n2cc(C(N)=O)c(Nc3ccc(S(=O)(=O)C(F)F)cc3)n2)CCC(Nc2ccccc2)CC1 (stereo not drawn) [Example 40-88, Cis or trans 1-[1-(cyanomethyl)-4-(phenylamino)cyclohexyl]-3-({4-[(difluoromethyl)sulfonyl]phenyl}amino)-1H-pyrazole-4-carboxamide] | – | –
3 | 0.8 | CC(C)(C)OC(=O)N1CCC(CC#N)(n2cc(C(N)=O)c(Nc3ccc(C(C)(C)O)nc3)n2)CC1 [Example 9-6, tert-butyl 4-(4-carbamoyl-3-(6-(2-hydroxypropan-2-yl)pyridin-3-ylamino)-1H-pyrazol-1-yl)-4-(cyanomethyl)piperidine-1-carboxylate] | – | –
19 | 1 | N#CCC1(n2cc(C(N)=O)c(Nc3cncc(F)c3)n2)CCN(C(=O)OCC(F)F)CC1 [Example 30-15, 2,2-difluoroethyl 4-(4-carbamoyl-3-(5-fluoropyridin-3-ylamino)-1H-pyrazol-1-yl)-4-(cyanomethyl)piperidine-1-carboxylate] | – | –
1190 | 94 | CCc1cccc(C)c1NC(=O)N1CC(CC#N)(n2cc(C(N)=O)c(Nc3ccccc3)n2)C1 [Example 38-23, 1-{3-(cyanomethyl)-1-[(2-ethyl-6-methylphenyl)carbamoyl]azetidin-3-yl}-3-(phenylamino)-1H-pyrazole-4-carboxamide] | – | –
1420 | 45 | N#CCC1(n2cc(C(N)=O)c(Nc3ccnc(F)c3)n2)CCC(NCc2cccc(C#N)c2)CC1 (stereo not drawn) [Example 41-14, Cis or trans 1-{4-[(3-cyanobenzyl)amino]-1-(cyanomethyl)cyclohexyl}-3-[(2-fluoropyridin-4-yl)amino]-1H-pyrazole-4-carboxamide] | – | –
10 | 0.1 | N#CCC1(n2cc(C(N)=O)c(Nc3ccnc(F)c3)n2)CCC(NCc2ccccc2)CC1 (stereo not drawn) [Example 41-18, Cis or trans 1-[4-(benzylamino)-1-(cyanomethyl)cyclohexyl]-3-[(2-fluoropyridin-4-yl)amino]-1H-pyrazole-4-carboxamide] | – | –
– | – | N#CC[C@]1(n2cc(C(N)=O)c(Nc3ccccc3)n2)CC[C@H](C(=O)NCC(F)(F)F)CC1 [Example 45-2, cis or trans 1-{1-(cyanomethyl)-4-[(2,2,2-trifluoroethyl)carbamoyl]cyclohexyl}-3-(phenylamino)-1H-pyrazole-4-carboxamide] | 378 | 1480
37 | 1 | CN(CCS(C)(=O)=O)C1CCC(CC#N)(n2cc(C(N)=O)c(Nc3ccc(F)cc3)n2)CC1 (stereo not drawn) [Example 40-72, Cis or trans 1-[1-(cyanomethyl)-4-{methyl[2-(methylsulfonyl)ethyl]amino}cyclohexyl]-3-[(4-fluorophenyl)amino]-1H-pyrazole-4-carboxamide] | – | –
47 | 1 | N#CCC1(n2cc(C(N)=O)c(Nc3ccnc(F)c3)n2)CCN(Cc2ccon2)CC1 [Example 22-31, 1-[4-(cyanomethyl)-1-(isoxazol-3-ylmethyl)piperidin-4-yl]-3-[(2-fluoropyridin-4-yl)amino]-1H-pyrazole-4-carboxamide] | – | –
> 1500 | 88 | COC1CC(CN2CCC(CC#N)(n3cc(C(N)=O)c(Nc4ccnc(F)c4)n3)CC2)C1 (stereo not shown) [Example 22-37, 1-{4-(cyanomethyl)-1-[(3-methoxycyclobutyl)methyl]piperidin-4-yl}-3-[(2-fluoropyridin-4-yl)amino]-1H-pyrazole-4-carboxamide] | – | –

Compound | IC50 (JAK2; [1]) [nM] | IC50 (JAK1; [1]) [nM] | IC50 (JAK1) [nM] | IC50 (JAK2) [nM]
N#CCC1(n2cc(C(N)=O)c(Nc3ccc(S(=O)(=O)C(F)F)cc3)n2)CCC(NC2CCCCC2)CC1 (stereo not drawn) [Example 40-57, Cis or trans 1-[1-(cyanomethyl)-4-(cyclohexylamino)cyclohexyl]-3-({4-[(difluoromethyl)sulfonyl]phenyl}amino)-1H-pyrazole-4-carboxamide] | > 1500 | – | 415 | –
CC(C)(C)OC(=O)N1CCC(CC#N)(n2cc(C(N)=O)c(Nc3ccc(CC(=O)O)cc3)n2)CC1 [Example 18, [4-({1-[1-(tert-Butoxycarbonyl)-4-(cyanomethyl)piperidin-4-yl]-4-carbamoyl-1H-pyrazol-3-yl}amino)phenyl]acetic acid] | 10 | 0.1 | – | –
